# Experimental data taken from article PMC9513391, “Crystal structure of the α-ketoglutarate-dependent non-heme iron oxygenase CmnC in capreomycin biosynthesis and its engineering to catalyze hydroxylation of the substrate enantiomer” (Frontiers in Chemistry, 2022).
# Tests used:
# Type in all cases: binding
# CmnC [1] = target: T1, CmnC (Saccharothrix mutabilis, UniProt A6YEH4); test: X-ray crystal structure by soaking; hydroxylation by LC-MS; conditions: 0.1 mM FeCl2 soak
# T1 construct: cmnC amplified from genomic DNA in pET28a, E. coli BL21 (DE3), Ni-NTA purified; homodimer in crystal and by size-exclusion chromatography
# CmnC [2] = target: T2, CmnC (Saccharothrix mutabilis, UniProt A6YEH4, L136Q/S138G/D249Y); test: X-ray crystal structure by soaking, […] Å; hydroxylation by LC-MS; conditions: 20 mM D-Arg soak, 12 h; activity: α-KG, Fe(II), ascorbate, pH 7.0, 26 °C
# T2 construct: cmnC amplified from genomic DNA in pET28a, E. coli BL21 (DE3), Ni-NTA purified; homodimer in crystal and by size-exclusion chromatography
# CmnC [3] = target: T2, CmnC; test: X-ray crystal structure by soaking, […] Å; conditions: 3 mM α-KG and 0.1 mM FeCl2 soak, 12 h
# CmnC [4] = target: T1, CmnC; test: X-ray crystal structure by soaking; conditions: 3 mM α-KG, 0.1 mM FeCl2 soak, 12 h; ternary complex with L-Arg also solved
# T1 sequence (A6YEH4 1-338): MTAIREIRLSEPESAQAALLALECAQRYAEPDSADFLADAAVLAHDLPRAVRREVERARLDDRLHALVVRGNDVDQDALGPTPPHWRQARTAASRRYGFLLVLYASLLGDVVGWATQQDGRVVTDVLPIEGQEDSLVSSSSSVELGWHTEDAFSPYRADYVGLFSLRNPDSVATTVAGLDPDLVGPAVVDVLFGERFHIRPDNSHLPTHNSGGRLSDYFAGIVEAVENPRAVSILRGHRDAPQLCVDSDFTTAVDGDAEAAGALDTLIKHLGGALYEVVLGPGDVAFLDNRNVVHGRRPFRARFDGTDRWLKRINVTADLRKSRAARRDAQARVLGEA
# T2 sequence (A6YEH4 1-338 L136Q/S138G/D249Y): as the sequence (A6YEH4 1-338) above, with L136Q, S138G, D249Y counted along it
compound,measurement,setting,value
N=C(N)NCCCC[C@H](N)C(=O)O [L-hArg],X-ray crystal structure by soaking; hydroxylation by LC-MS,"CmnC [1]; 3 mM L-hArg, tartrate in α-KG site","in complex with L-Arg (CmnC^ L−Arg), L-hArg (CmnC^ L-hArg), α-KG (CmnC^α-kg)"
N=C(N)NCCC[C@H](N)C(=O)O [L-Arg],X-ray crystal structure by soaking; hydroxylation by LC-MS,"CmnC [1]; 3 mM L-Arg, tartrate in α-KG site in the binary complex, ternary complex with α-KG also solved","in complex with L-Arg (CmnC^ L−Arg), L-hArg (CmnC^ L-hArg), α-KG (CmnC^α-kg)"
N=C(N)NCCC[C@@H](N)C(=O)O [D-Arg],"X-ray crystal structure by soaking, 1.75 Å; hydroxylation by LC-MS",CmnC [2],"crystal structures of CmnC^L136Q,S138G,D249Y in complex with α-KG (CmnC^triple,α-kg) and D-Arg (CmnC^triple,D−Arg)"
O=C(O)CCC(=O)C(=O)O [α-KG],"X-ray crystal structure by soaking, 1.67 Å",CmnC [3],"crystal structures of CmnC^L136Q,S138G,D249Y in complex with α-KG (CmnC^triple,α-kg)"
same,X-ray crystal structure by soaking,CmnC [4],"L-hArg (CmnC^ L-hArg), α-KG (CmnC^α-kg), and L-Arg/α-KG (CmnC^ L−Arg,α-kg)"
